Measured values reported in paper PMC11582173, “Synthesis, cytotoxicity, anti-inflammatory, anti-metastatic and anti-oxidant activities of novel chalcones incorporating 2-phenoxy-N-arylacetamide and thiophene moieties: induction of apoptosis in MCF7 and HEP2 cells” (Naunyn-Schmiedeberg's Archives of Pharmacology, 2024).

Tested on: KI-67 gene
Assay: Real-time PCR, KI-67 gene expression
Type: cell-based, human
Settings: relative to untreated control (1), normalized to GAPDH
Description: The expression level of the following six genes (Ki-67, Survivin, Interleukin-1 beta (IL-1B), Interleukin-6 (IL-6), Cyclooxygenase-2 (COX-2) and protein kinase B (AKT1)) was determined in MCF7 and HEP2 treated with the IC50 of compound 5c. The untreated cells were used as a negative control for comparison purposes. […] Ki-67 is a popular proliferation marker for human tumor cells. […] Survivin is an inhibitor of apoptotic protein (IAP) family member, which is essential for cell division. The lowering of the expression of survivin inhibited tumor development, triggered apoptosis, and made tumor cells more susceptible to radiation and chemotherapy (Albadari and Li [2023]). […] IL-1B is a pleiotropic mediator of inflammation, which is produced in response to a variety of stressors (Aarreberg et al. [2019]). […] IL-6 is a pro-inflammatory cytokine that plays a significant role in the proliferation and differentiation of human cells. It promotes the production of numerous proteins involved in acute inflammation (Uciechowski and Dempke [2020]). […]
The expression level of the following six genes (Ki-67, survivin, AKT1, IL-6, COX2, and IL-1B) was examined using real-time polymerase chain reaction (qPCR) (Mohamed et al. [2023a]). […] The cycle threshold (Ct) was determined automatically. […]

COc1ccc(NC(=O)COc2ccc(C=CC(=O)c3cccs3)cc2)cc1 [Compound 5c, N-(4-Methoxyphenyl)-2-(4-(3-oxo-3-(thiophen-2-yl)prop-1-en-1-yl)phenoxy)acetamide]
KI67 expression folding (HEP2 cells treated with IC50 of 5c): 0.648±0.015 fold | KI67 expression folding (MCF7 cells treated with IC50 of 5c): 0.352±0.0172 fold
